Patent publication US20220351803A1, “Predicting The Response Of A Microbiota To Dietary Fibers” (MYOTA GMBH, priority 2019, published 2022)

Assays:
stool microbiota [1] = assay: Ex vivo stool slurry incubation, SCFA production by GC-FID; parameters: species or system human
Experimental: (§1) Fresh stool samples were collected and weighed before being transferred to anaerobic conditions, in which they were diluted in reduced PBS containing 0.1% L-Cysteine to a ratio of 1 g/5 ml. Samples were homogenized into a slurry before being aliquoted into 96-well plates. Samples of the unaltered slurry were taken for a baseline sample, after which inulin, pectin, and cellulose were added from stock solutions to final slurry concentrations of 10 g/L, 5 g/L and 20 g/L, respectively. Concentrations of inulin and pectin were determined based on the maximum stock concentration we were able to obtain in which the dietary fiber was fully dissolved. Four conditions were measured: inulin, pectin, cellulose and control (no spike-in). The samples were incubated anaerobically at 37° C., and two biological replicates (two different wells in the 96-well plates) were collected at each time point. Samples were collected after 2 and 4 hours from all participants and sent out for SCFA quantification on a GC-FID. Linear production rate was measured between 2 h and 4 h because this allowed Applicants maximum accuracy in measuring the time interval without introducing artefacts due to delays between conditions introduced during setup. Results obtained from slurry in large flasks on a shaker were in good agreement with data obtained in a 96-well plate format.
Chromatographic analysis was carried out using an Agilent 7890B system with a flame ionization detector (FID) (Agilent Technologies, Santa Clara, Calif.). A high resolution gas chromatography capillary column 30 m×0.25 mm coated with 0.25 μm film thickness was used (DB-FFAP) for the volatile acids (Agilent Technologies) and a high resolution gas chromatography capillary column 30 m×0.25 mm coated with 0.50 μm film thickness was used (DB-FFAP) for the nonvolatile acids. Nitrogen was used as the carrier gas. […]
The samples were kept frozen at −80° C. until analysis. […] A sample of the raw fecal material was transferred to a 2 mL tube, the weight of the fecal material was determined and 1.5 mL of HPLC water was added to each sample. […]

stool microbiota [2] = assay: Ex vivo stool slurry incubation, inulin depletion by inulin-specific ELISA; parameters: species or system human
Experimental: as §1
Applicants use BioPAL's inulin immunoassay kit (BioPAL Worcester Mass.) to measure inulin concentration in filtrate from stool samples and follow manufacture's protocol. […]
To measure SCFA production ex vivo in response to different dietary polysaccharides, stool from 40 healthy human participants was homogenized into a slurry in anaerobic conditions and spiked with inulin, pectin or cellulose (cf. Methods). The slurry was then allowed to evolve over time and samples obtained at regular intervals in order to quantify SCFA content at each timepoint (FIG. 1). In order to determine the appropriate sampling frequency, Applicants performed pilot experiments in which Applicants analysed the trajectory of each SCFA concentration over a 24 h period. […]

CaCo cell monolayers = assay: Gut monolayer SCFA absorption measurements (Transwell, apical/basal sampling over 24 h); format: in vitro ADME; settings: CaCo monolayer-derived rate constant
Experimental: Applicants used a gut monolayer system without the immune component, the Gut monolayer was prepared as previously described by WLK Chen et al. (Chen et al., 2017b) Briefly Caco-2 or C2BBe1 along with HT29-MTX-E21 cells (Sigma) were seeded onto rat tail collagen I-(corning 354236) coated Transwell inserts (Corning 3460) in a 9:1 ratio (1×10^5 cells/cm2) in 500 μl seeding medium. The top and bottom compartments of the Transwell Plate were fed with 500 ul and 1.5 ml of seeding medium. The medium was changed every 2-3 days. After 20 days of gut insert maturation, the cell monolayer was ready to use.
Barrier integrity was quantified by TEER (TransEpithelial Electrical Resistance) using the EVOM2 and the Enfohm-12 (World Precision Instruments) at 37° C. Applicants measured cell monolayer integrity at the beginning and the end of the 24 h long experiment. […]
Gut luminal concentrations of microbially-derived SCFAs is a balance between net production in the lumen and absorption by the host epithelium. Unfortunately, quantitative understanding of the rate of absorption of a given SCFA by cells in the gut epithelia is limited. […] Applicants sought to estimate the order of magnitude of this rate constant, to better understand the fate of SCFAs produced by the microbiota in the colon (i.e. the balance between quantities absorbed versus quantities excreted). […]

[3] = dialysis bag constant; cited from earlier work

Compound: cellulose
- SCFA production rates versus control (no spike-in) (stool microbiota [1]; 20 g/L cellulose, timepoints 2 h and 4 h): indistinguishable from control

Compound: inulin
- inulin substrate in slurry after 4 h (stool microbiota [2]; 10 g/L inulin, 4 h): a significant fraction of inulin substrate remained
- inulin substrate in slurry by 24 h (stool microbiota [2]; 10 g/L inulin, 24 h, five of the six participants tested): almost entirely consumed
- time for the majority of inulin to be fermented by the microbiota ex vivo (stool microbiota [2]; input concentration 10 g/L, most participants): 12 to 24 h
- butyrate concentration over 24 h (stool microbiota [1]; participant C): only produces butyrate from inulin

Compound: CCCC(=O)[O-].[Na+] [butyrate, Sodium Butyrate]
- absorption rate constant of butyrate (CaCo cell monolayers): 0.091 mmol L-1h-1cm-2
- absorption rate constant of butyrate [3]: 0.0019 mmol L-1h-1cm-2

Compound: pectin
- butyrate concentration over 24 h (stool microbiota [1]; participant G): produces it from pectin as well
